Usually IC50 stands for the concentration needed to halve the response being measured. High values mean lower potency, low ones higher potency.

We go through 11 molecules from patent publication US8592597B2, “Pyrrole compounds” (Takeda Pharmaceutical Company Limited, priority 2008, dated 2013).

The target of data set [1] is T1, proton, potassium-adenosine triphosphatase (H+/K+-ATPase) (Sus scrofa, UniProt P19156).
T1 construct: a gastric mucous membrane microsomal fraction was prepared from the stomach of swine; from tissue; host or cells: swine stomach, gastric mucous membrane microsomal fraction
Kind of data set: Proton potassium-adenosine triphosphatase (H+,K+-ATPase) inhibitory activity test. It is filed as biochemical. The following applies: swine gastric mucous membrane microsomal fraction, pH 6.5, 37° C. As to the method: According to the method [Biochim. Biophys. Acta, 728, 31 (1983)] of Wallmark et al., a gastric mucous membrane microsomal fraction was prepared from the stomach of swine. First, the stomach was removed, washed with tap water, immersed in 3 mol/L brine, and the surface of the mucous membrane was wiped with a paper towel. The gastric mucous membrane was detached, chopped, and homogenized in a 0.25 mol/L saccharose solution (pH 6.8) containing 1 mmol/L EDTA and 10 mmol/L tris-hydrochloric acid using polytron (Kinematica). The obtained homogenate was centrifuged at 20,000×g for 30 min and the supernatant was centrifuged at 100,000×g for 90 min. The precipitate was suspended in 0.25 mol/L saccharose solution, superimposed on a 0.25 mol/L saccharose solution containing 7.5% Ficoll, and centrifuged at 100,000×g for 5 hr. The fraction containing the interface between the both layers was recovered, and centrifugally washed with 0.25 mol/L saccharose solution. The obtained microsomal fraction was used as a proton, potassium-adenosine triphosphatase standard product.
To 40 μL of a 50 mmol/L HEPES-tris buffer (5 mmol/L magnesium chloride, 10 mmol/L potassium chloride, 10 μmol/L valinomycin, pH=6.5) containing 2.5 μg/mL (based on the protein concentration) of the enzyme standard product was added a test compound (5 μL) dissolved in a 10% aqueous dimethyl sulfoxide solution, and the mixture was incubated at 37° C. for 30 min. The enzyme reaction was started by adding 5 μL of a 2 mmol/L adenosine triphosphate tris salt solution (50 mmol/L HEPES-tris buffer (5 mmol/L magnesium chloride, pH 6.5)). The enzyme reaction was carried out at 37° C. for 20 min, and 15 μL of a malachite green solution (0.12% malachite green solution in sulfuric acid (2.5 mol/L), 7.5% ammonium molybdate and 11% Tween 20 were mixed at a ratio of 100:25:2) was added to quench the reaction. After allowing to stand at room temperature for 15 min, the resulting reaction product of inorganic phosphorus with malachite green was colorimetrically determined at a wavelength of 620 nm. In addition, the amount of the inorganic phosphoric acid in the reaction solution free of potassium chloride was measured in the same manner, which was subtracted from the inorganic phosphoric acid amount in the presence of potassium chloride to determine the proton, potassium-adenosine triphosphatase activity. The inhibitory rate (%) was determined from the activity value of the control and the activity values of various concentrations of the test compound, and the 50% inhibitory concentration (IC50) of the proton, potassium-adenosine triphosphatase was determined.

Another data set has as its system HepG2. The data set can be described thus: ATP content test. It is filed as cell-based, Human. The settings on record: HepG2, 100 μM, culture for one day, relative value to control (without drug). As to the method:
(§1) Human liver cancer-derived cell line HepG2 (ATCC No. HB-8065) was passaged using Dulbecco's Modified Eagle medium (DMEM; Invitrogen) containing 10% fetal bovine serum (FBS; TRACE SCIENTIFIC LTD.), 1 mmol/L sodium pyruvate (Invitrogen), 2 mmol/L L-glutamine (Invitrogen), 50 IU/mL penicillin (Invitrogen) and 50 μg/mL streptomycin (Invitrogen) at 5% CO2, 37° C. The test reagent was prepared with DMSO to 10 mM, and further diluted with DMEM medium containing 0.5% FBS, 1 mmol/L sodium pyruvate, 2 mmol/L L-glutamine, 50 IU/mL penicillin and 50 μg/mL streptomycin to a final concentration of DMSO of 0.1%. HepG2 (2×10^4 cells/well) was cultured on a 96 well white plate (Costar) with the test reagent at 5% CO2, 37° C. After culture for one day, the intracellular ATP content was measured using ATPLITE™ (PerkinElmer Life Sciences). The results are shown in Table 4 (n≧3, average value ±SD) as a relative value (%) to control (without addition of drug).

In data set [2] the test system is Caspase-3/7 activity in HepG2 cells. Kind of data set: Caspase-3/7 activity test. It is filed as cell-based, Human. The settings on record: HepG2, 100 μM, culture for one day, relative to maximum with Staurosporine (100%) and no reagent (0%). As to the method:
as §1
The Caspase-3/7 activity in the cells cultured for one day by a method similar to that in Experimental Example 3 was measured using CASPASE-GLO 3/7 Assay (Promega). The results are shown in Table 4 (n≧3, average value ±SD) as relative activity (%) of each reagent based on the maximum value of Caspase-3/7 activity when exposed to Staurosporine (100%), and the activity without addition of a test reagent (0%).

Each structure is given as a SMILES string. Where a name gives a salt, the structure may show the parent alone.

T1 sequence (P19156 2-1034 limits assumed): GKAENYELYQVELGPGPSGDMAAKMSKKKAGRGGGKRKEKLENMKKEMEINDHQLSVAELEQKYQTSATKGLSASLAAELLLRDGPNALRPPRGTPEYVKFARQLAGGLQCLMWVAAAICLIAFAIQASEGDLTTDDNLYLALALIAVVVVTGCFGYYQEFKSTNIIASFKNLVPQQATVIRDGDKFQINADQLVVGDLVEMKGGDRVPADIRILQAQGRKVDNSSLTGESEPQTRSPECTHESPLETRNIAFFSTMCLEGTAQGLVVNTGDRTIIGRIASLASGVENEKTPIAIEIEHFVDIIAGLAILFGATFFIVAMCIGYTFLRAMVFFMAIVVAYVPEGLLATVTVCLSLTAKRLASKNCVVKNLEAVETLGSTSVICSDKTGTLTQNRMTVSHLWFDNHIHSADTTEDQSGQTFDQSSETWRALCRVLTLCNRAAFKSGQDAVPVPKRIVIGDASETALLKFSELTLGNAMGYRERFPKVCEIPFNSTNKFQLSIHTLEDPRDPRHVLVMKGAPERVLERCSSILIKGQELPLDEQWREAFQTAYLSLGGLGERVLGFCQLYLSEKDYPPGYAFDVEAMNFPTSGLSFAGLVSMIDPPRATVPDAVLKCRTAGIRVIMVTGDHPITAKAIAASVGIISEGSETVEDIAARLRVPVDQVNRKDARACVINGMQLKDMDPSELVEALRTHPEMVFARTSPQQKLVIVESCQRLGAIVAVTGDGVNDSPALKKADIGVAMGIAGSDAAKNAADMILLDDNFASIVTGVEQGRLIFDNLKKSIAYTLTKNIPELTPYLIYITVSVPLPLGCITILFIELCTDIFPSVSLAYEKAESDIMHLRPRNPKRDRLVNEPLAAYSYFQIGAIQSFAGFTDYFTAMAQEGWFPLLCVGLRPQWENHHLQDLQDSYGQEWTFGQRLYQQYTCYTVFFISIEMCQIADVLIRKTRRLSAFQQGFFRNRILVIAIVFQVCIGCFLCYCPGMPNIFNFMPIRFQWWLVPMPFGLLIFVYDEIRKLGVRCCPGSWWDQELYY
T1 sequence (P18434 whole entry partner): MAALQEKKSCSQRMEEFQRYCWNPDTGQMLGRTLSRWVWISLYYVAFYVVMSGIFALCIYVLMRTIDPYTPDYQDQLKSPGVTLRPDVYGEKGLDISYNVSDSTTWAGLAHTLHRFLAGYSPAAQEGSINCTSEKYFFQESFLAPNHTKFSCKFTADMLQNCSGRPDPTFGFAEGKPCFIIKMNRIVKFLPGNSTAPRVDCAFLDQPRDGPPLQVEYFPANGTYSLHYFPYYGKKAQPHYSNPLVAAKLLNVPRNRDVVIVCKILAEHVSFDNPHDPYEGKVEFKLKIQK

The molecule `CNCc1cn(S(=O)(=O)c2cncc(F)c2)c(-c2cccnc2F)c1F` [Example 26, 1-{4-Fluoro-5-(2-fluoropyridin-3-yl)-1-[(5-fluoropyridin-3-yl)sulfonyl]-1H-pyrrol-3-yl}-N-methylmethanamine succinate] came in with a concentration for half-maximal inhibition (IC50) in data set [1] of 130 nM.

For `CNCc1cn(S(=O)(=O)c2cncc(F)c2)c(-c2cccnc2F)c1F` [Example 27, 1-{4-Fluoro-5-(2-fluoropyridin-3-yl)-1-[(5-fluoropyridin-3-yl)sulfonyl]-1H-pyrrol-3-yl}-N-methylmethanamine L-tartrate], the half-maximal inhibitory concentration (IC50) in data set [1] came out at 160 nM.

For the molecule `CNCc1cn(S(=O)(=O)c2cc(C)ccn2)c(-c2cccnc2F)c1F` [Example 2, 1-{4-Fluoro-5-(2-fluoropyridin-3-yl)-1-[(4-methylpyridin-2-yl)sulfonyl]-1H-pyrrol-3-yl}-N-methylmethanamine hydrochloride], half-maximal inhibition in data set [1] (IC50) required 100 nM. Moreover, the “ATP content (%, 100 μM)” value in the data set with HepG2 was determined as 85.5%. Moreover, in data set [2], the “Caspase-3/7 activity (%, 100 μM)” value is recorded as −1.1%.

Regarding `CNCc1cn(S(=O)(=O)c2cncc(F)c2)c(-c2cccnc2F)c1F` [Example 25, 1-{4-Fluoro-5-(2-fluoropyridin-3-yl)-1-[(5-fluoropyridin-3-yl)sulfonyl]-1H-pyrrol-3-yl}-N-methylmethanamine 0.5 fumarate], the half-maximal inhibitory concentration (IC50) in data set [1] was determined as 200 nM.

`CNCc1cn(S(=O)(=O)c2cc(C)ccn2)c(-c2cccnc2F)c1F` [Example 23, 1-{4-Fluoro-5-(2-fluoropyridin-3-yl)-1-[(4-methylpyridin-2-yl)sulfonyl]-1H-pyrrol-3-yl}-N-methylmethanamine fumarate] gave an IC50 in data set [1] of 83 nM.

In data set [1], `CNCc1cn(S(=O)(=O)c2ccc(C)nc2)c(-c2cccnc2F)c1F` [Example 8, 1-{4-Fluoro-5-(2-fluoropyridin-3-yl)-1-[(6-methylpyridin-3-yl)sulfonyl]-1H-pyrrol-3-yl}-N-methylmethanamine 0.5 fumarate] displayed an IC50 of 180 nM. Also, the “ATP content (%, 100 μM)” value in the data set on HepG2 was 76.7%. Besides, the “Caspase-3/7 activity (%, 100 μM)” value in data set [2] was 2.4%.

In the case of `CNCc1cn(S(=O)(=O)c2cc(OC)ccn2)c(-c2cccnc2F)c1F` [Example 4, 1-{4-Fluoro-5-(2-fluoropyridin-3-yl)-1-[(4-methoxypyridin-2-yl)sulfonyl]-1H-pyrrol-3-yl}-N-methylmethanamine hydrochloride], in data set [1], the IC50 is 140 nM. In addition, the “ATP content (%, 100 μM)” value in the data set with HepG2 worked out at 84.5%. For the same molecule, the “Caspase-3/7 activity (%, 100 μM)” value in data set [2] is given as −0.6%.

For the molecule `CNCc1cn(S(=O)(=O)c2ccc(OC)cn2)c(-c2cccnc2F)c1F` [Example 10, 1-{4-Fluoro-5-(2-fluoropyridin-3-yl)-1-[(5-methoxypyridin-2-yl)sulfonyl]-1H-pyrrol-3-yl}-N-methylmethanamine hydrochloride], the concentration for half-maximal inhibition (IC50) in data set [1] was found to be 280 nM. In addition, the “ATP content (%, 100 μM)” value in the data set on HepG2 was 80.0%. The “Caspase-3/7 activity (%, 100 μM)” value in data set [2] is listed as 0.9%.

`CNCc1cn(S(=O)(=O)c2ccc(F)cn2)c(-c2cccnc2F)c1F` [Example 3, 1-{4-Fluoro-5-(2-fluoropyridin-3-yl)-1-[(5-fluoropyridin-2-yl)sulfonyl]-1H-pyrrol-3-yl}-N-methylmethanamine hydrochloride] showed a half-inhibitory concentration (IC50) in data set [1] of 100 nM. The “ATP content (%, 100 μM)” value with HepG2 is on record as 86.5%. For the same molecule, in data set [2], the “Caspase-3/7 activity (%, 100 μM)” value is listed as −0.5%.

With `CNCc1cn(S(=O)(=O)c2cncc(F)c2)c(-c2cccnc2F)c1F` [Example 5, 1-{4-Fluoro-5-(2-fluoropyridin-3-yl)-1-[(5-fluoropyridin-3-yl)sulfonyl]-1H-pyrrol-3-yl}-N-methylmethanamine hydrochloride], in data set [1], the IC50 amounted to 200 nM. For the same molecule, the “ATP content (%, 100 μM)” value in the data set with HepG2 was 88.9%. Moreover, the “Caspase-3/7 activity (%, 100 μM)” value in data set [2] was found to be 0.3%.

Turning to `CNCc1cn(S(=O)(=O)c2cc(C)ccn2)c(-c2cccnc2F)c1F` [Example 24, 1-{4-Fluoro-5-(2-fluoropyridin-3-yl)-1-[(4-methylpyridin-2-yl)sulfonyl]-1H-pyrrol-3-yl}-N-methylmethanamine succinate], in data set [1], inhibition was half-maximal at 140 nM (IC50).
